The values below come from patent US20050208468A1, “Assays with primary cells” (priority 2003, published 2005).

Data set [1] deals with primary human renal proximal tubule epithelial (HRPTE) cells. Put plainly: proliferative response (S-phase index) of primary HRPTE cells. It is filed as cell-based. Conditions: HRPTE cells in 96-well microplate wells or on coded carriers; various concentrations; FIG. 6. The method, then:
This example describes how multiplexed analysis using coded carriers may be used to assay the effects of camptothecin on the proliferative response of primary human renal proximal tubule epithelial (HRPTE) cells, in accordance with aspects of the present teachings; see FIG. 6.
Specifically, HRPTE cells are grown directly in wells of a standard 96-well microplate, to three different cell densities (indicated as the stated number of cells), or on coded carriers that optionally may be placed in wells of the microplate. An “S-phase index” (e.g., the fraction of cells in the S-phase of the cell cycle) is used as a measure of cell proliferation. […] This reduction may be particularly significant in assays on primary cells, because primary cells typically are difficult to obtain and maintain.

In data set [2] the test system is PPARγ. Nature of the data set: PPARγ activity assay based on PEPCK expression, coded carriers in a shared fluid volume. It is filed as cell-based, human. The conditions noted are these: four donor samples in a shared fluid volume; four days; FIG. 12.
Excerpt: This differentiation may be visualized readily and scored by staining lipid droplets that accumulate in the cytoplasm of the adipocytes during and/or after their differentiation. Furthermore, this adipocyte differentiation and/or activation of PPARγ may be followed by measuring the expression levels (RNA and/or protein) of PPARγ target genes (direct or indirect targets), such as PEPCK (phosphoenolpyruvate carboxykinsae) and/or FABP4 (fatty acid binding protein 4), among others.
Staining was via indirect immunofluorescence. Cells were counterstained with a nuclear dye (Hoechst) for data normalization, here and in other assays. […] Each sample of primary cells corresponds to pre-adipocytes isolated from visceral tissue (samples starting with the letter “V”) or isolated from subcutaneous tissue (samples starting with the letters “SC”) and were supplied by Cambrex. […] Each sample was connected to a distinct class of coded carriers (having a distinct code) to permit identification of the sample after combining the different classes of carrier and samples in a shared volume. […] Lipid accumulation and PEPCK expression were then measured with the samples still disposed in the same microplate wells. […]
The subject of data set [3] is HRPTE cells. Nature of the data set: cytotoxicity response (death index, live/dead assay) of HRPTE cells. The class given is cell-based, human. The conditions noted are these: HRPTE cells in 96-well microplate wells or on coded carriers; various concentrations; FIG. 7. The method, then: This example describes how multiplexed analysis using coded carriers may be used to study the cytotoxicity response of HRPTE cells to staurosporine, in accordance with aspects of the present teachings; see FIG. 7.
Specifically, HRPTE cells are grown directly attached to wells of a standard 96-well microplate, or on coded carriers that optionally may be placed in wells of the microplate. A “death index” (e.g., the fraction of observed cells that are dead) may be used as a measure of cytotoxicity. The death index may be computed using any suitable mechanism, such as a fluorescence-based “live/dead assay.” In an exemplary version of the assay, live cells are labeled green using a membrane-permeant calcein AM, which is cleaved by esterases in live cells to yield cytoplasmic green fluorescence, and dead cells are labeled red using a membrane-impermeant ethidium homodimer-1, which passes through the compromised membranes of dead cells to label nucleic acids with red fluorescence. […] This reduction may be particularly significant in assays on primary cells, because primary cells typically are difficult to obtain and maintain.

Consider `CC[C@@]1(O)C(=O)OCc2c1cc1n(c2=O)Cc2cc3ccccc3nc2-1` [camptothecin], for which the “S-phase index (measure of cell proliferation)” value in data set [1] was “S-phase index generally decreases with increasing camptothecin concentration”.

With `COc1ccc2c(c1)c(CC(=O)O)c(C)n2C(=O)c1ccc(Cl)cc1` [Indomethacin, indomethacin], the “induction of PEPCK expression as a measure of PPARγ activity” value in data set [2] is on record as “relatively strong induction”.

Take `CN[C@@H]1C[C@H]2O[C@@](C)([C@@H]1OC)n1c3ccccc3c3c4c(c5c6ccccc6n2c5c31)C(=O)NC4` [staurosporine]: in data set [3], the “death index (fraction of dead cells)” value was “generally increases with increasing staurosporine concentration”.
